Measurements as given in US4474761A, “Oligopeptides with specific inhibiting properties of collagen induced aggregation, process for preparing the same and pharmaceutical compositions containing them” (Choay S.A., priority 1980, dated 1984).
Where no end group is shown, it is not given here. [ ]: non-standard residue; d: D form. Hyp = O=C(O)[C@@H]1C[C@@H](O)CN1

Tested on: platelet membranes
Assay: Linkage of tritiated nonapeptide to platelet membranes (filtration)
Type: binding
Conditions: for Linkage (%) after dissociation time: Table IX
Experimental: The study of the nature of the interaction between type III collagen and platelets is carried out in the presence of tritiated (labelled) nonapeptide of formula: […]
The complete platelets or the platelet membranes solubilized in triton (0.15%) are incubated in a physiological buffer of the type described above in the serotonin release test (in a total volume of 0.2 ml) at a temperature of 37° C. for 15 minutes. The incubation is carried out in presence of tritiated nonapeptide the specific activity of which is of […].
The nonapeptide fixed or linked to the platelet or to the membranes is separated from the free nonapeptide by filtration of the incubation medium through multiporous membranes having porosities of 0.8μ and 0.45μ respectively. The radio activity is directly determined on the filters and the percentage of linkages determined according to the following formula: [formula]
(c) Table VIII relates to the linkage specificity. It represents the linkage percentages between the platelet membranes and different peptides of the invention in the presence of various aggregation inducers (15 ng of peptide, 30 μg of platelet membrane).
The specificity of the linkage is assessed by the total displacement of the corresponding radio-activity by an excess of non labelled peptide of the invention. This excess corresponds to an amount of 100 to 1000 times more than the amount of non labelled peptide which is necessary to induce adhesion of the platelets.
Said reversibility has been studied in the presence of two concentrations of labelled (nona)peptide which are respectively of 3 and 6 ng, for 30 μg of platelet membranes. After the binding of the labelled nonapeptide to the membranes, the incubation media are diluted to the 80 volumes:
in the absence of non labelled (nona)peptide;
and in the presence of an excess of non labelled (nona)peptide (as indicated under c) for the reversibility test).
The percentage of linkage is then determined as a function of an incubation duration ranging from 0 to 15 minutes.
The reversibility is measured by the dissociation factor and the dissociation time.

GK[Hyp]GE[Hyp]GPK [Nonapeptide H^3]
Linkage (%) after dissociation time (Nonapeptide H^3 3 ng, 30 μg membranes, dilution 1/80, 0'): 3.2%
Linkage (%) after dissociation time (Nonapeptide H^3 3 ng, dilution 1/80 + 100 μg of nonapeptide, 0'): 3.2%
Linkage (%) after dissociation time (Nonapeptide H^3 3 ng, dilution 1/80 + 100 μg of nonapeptide, 2'): 1%
Linkage (%) after dissociation time (Nonapeptide H^3 3 ng, dilution 1/80 + 100 μg of nonapeptide, 10'): 0.5%
Linkage (%) after dissociation time (Nonapeptide H^3 3 ng, dilution 1/80 + 100 μg of nonapeptide, 15'): 0.1%
Linkage (%) after dissociation time (Nonapeptide H^3 3 ng, dilution 1/80, 2'): 1.75%
Linkage (%) after dissociation time (Nonapeptide H^3 3 ng, dilution 1/80, 5'): 1.55%
Linkage (%) after dissociation time (Nonapeptide H^3 3 ng, dilution 1/80, 10'): 1%
Linkage (%) after dissociation time (Nonapeptide H^3 3 ng, dilution 1/80, 15'): 0.6%
Linkage (%) after dissociation time (Nonapeptide H^3 6 ng, dilution 1/80 + 100 μg of nonapeptide, 0'): 5.9%
Linkage (%) after dissociation time (Nonapeptide H^3 6 ng, dilution 1/80 + 100 μg of nonapeptide, 2'): 3%
Linkage (%) after dissociation time (Nonapeptide H^3 6 ng, dilution 1/80 + 100 μg of nonapeptide, 10'): 1.5%
Linkage (%) after dissociation time (Nonapeptide H^3 6 ng, dilution 1/80 + 100 μg of nonapeptide, 15'): 1%
Linkage (%) after dissociation time (Nonapeptide H^3 6 ng, dilution 1/80, 0'): 5.9%
Linkage (%) after dissociation time (Nonapeptide H^3 6 ng, dilution 1/80, 2'): 4.8%
Linkage (%) after dissociation time (Nonapeptide H^3 6 ng, dilution 1/80, 5'): 3%
Linkage (%) after dissociation time (Nonapeptide H^3 6 ng, dilution 1/80, 10'): 2.4%
Linkage (%) after dissociation time (Nonapeptide H^3 6 ng, dilution 1/80, 15'): 1.5%
Linkage (%) (Table VI, Nonapeptide H^3 3 ng, proteic concentration 20 μg): 2.1%
Linkage (%) (Table VI, Nonapeptide H^3 3 ng, proteic concentration 40 μg): 3.8%
Linkage (%) (Table VI, Nonapeptide H^3 3 ng, proteic concentration 60 μg): 4.3%
Linkage (%) (Table VI, Nonapeptide H^3 3 ng, proteic concentration 80 μg): 4.6%
Linkage (%) (Table VI, Nonapeptide H^3 3 ng, proteic concentration 100 μg): 5.3%
Linkage (%) (Table VI, Nonapeptide H^3 30 ng, proteic concentration 20 μg): 3.5%
Linkage (%) (Table VI, Nonapeptide H^3 30 ng, proteic concentration 40 μg): 4.3%
Linkage (%) (Table VI, Nonapeptide H^3 30 ng, proteic concentration 60 μg): 5%
Linkage (%) (Table VI, Nonapeptide H^3 30 ng, proteic concentration 80 μg): 5.8%
Linkage (%) (Table VI, Nonapeptide H^3 30 ng, proteic concentration 100 μg): 6.15%
Linkage (%) (Table VI, Nonapeptide H^3 30 ng, proteic concentration 200 μg): 10.4%
Linkage (%) (Table VI, Nonapeptide H^3 30 ng, proteic concentration 400 μg): 13%
Linkage (%) (Table VI, Nonapeptide H^3 30 ng, proteic concentration 450 μg): 13.8%
Linkage (%) (Table VII, Nonapeptide H^3 3 ng): 1.6%
Linkage (%) (Table VII, Nonapeptide H^3 6 ng): 3.5%
Linkage (%) (Table VII, Nonapeptide H^3 12 ng): 5.5%
Linkage (%) (Table VII, Nonapeptide H^3 60 ng): 7.5%
Linkage (%) (Table VII, Nonapeptide H^3 300 ng): 10.5%
Linkage (%) (Table VIII, Nonapeptide H^3 15 ng, platelet membranes 30 μg, agent 0): 4%

Nc1ncnc2c1ncn2[C@@H]1O[C@H](COP(=O)(O)OP(=O)(O)O)[C@@H](O)[C@H]1O [ADP, reference compound]
Linkage % of Nonapeptide H^3 in presence of agent (Table VIII, Nonapeptide H^3 15 ng, platelet membranes 30 μg, agent 10^-2 M): 4.3%

CNCC(O)c1ccc(O)c(O)c1 (stereo not shown) [Adrenaline, reference compound]
Linkage % of Nonapeptide H^3 in presence of agent (Table VIII, Nonapeptide H^3 15 ng, platelet membranes 30 μg, agent 100 μg): 5.4%

CCCCC/C=C\C/C=C\C/C=C\C/C=C\CCCC(=O)O [Arachidonic acid, reference compound]
Linkage % of Nonapeptide H^3 in presence of agent (Table VIII, Nonapeptide H^3 15 ng, platelet membranes 30 μg, agent 6 nM): 4.1%
